Laboratory results reported in patent publication US20250381307A1, “RETRO-AAV AND USE IN TREATING NEURODEGENERATIVE DISEASES” (priority 2023, published 2025).

Target: T1, rM3Ds (Rattus norvegicus, UniProt P08483, A177S/A238G/A489L/DEL261-437/DEL441-478/E258S/I253V/I483M/INS256[…]/K178L/K182A/K255R/K484R/K486H/L173F/L482A/M480V/R171S/R176Q/R179M/S481M/T174R/T181R/T257A/Y148C)
T1 sequence (P08483 with tags, fused parts or gaps Y148C/R171S/L173F/T174R/R176Q/A177S/K178L/R179M/T181R/K182A/A238G/I253V/K255R/INS256[…]/T257A/E258S/DEL261-437/DEL441-478/M480V/S481M/L482A/I483M/K484R/K486H/A489L): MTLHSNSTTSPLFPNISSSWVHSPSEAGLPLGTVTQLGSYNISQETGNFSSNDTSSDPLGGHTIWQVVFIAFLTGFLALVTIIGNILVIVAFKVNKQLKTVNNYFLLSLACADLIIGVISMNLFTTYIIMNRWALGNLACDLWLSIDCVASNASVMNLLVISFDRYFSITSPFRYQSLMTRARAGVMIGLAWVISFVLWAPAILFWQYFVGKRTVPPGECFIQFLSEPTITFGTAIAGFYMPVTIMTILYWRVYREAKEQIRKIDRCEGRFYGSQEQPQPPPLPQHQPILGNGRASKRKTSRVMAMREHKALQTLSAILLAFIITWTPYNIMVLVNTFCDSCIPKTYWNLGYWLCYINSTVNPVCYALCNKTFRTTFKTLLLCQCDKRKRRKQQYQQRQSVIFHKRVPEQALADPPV
Test: In vivo electrophysiological recording in caudate/putamen, rM3Ds macaques, intramuscular CNO
Parameters: rM3Ds; 2A-EYFP (C); host or cells: AAV8R12-transduced striatal D1-MSNs of mice and cynomolgus macaques (in vivo and acute slices)
Method: Electrophysiological recording was performed through a recording chamber while the monkey was anesthetized. Neural responses were recorded by a 16-channel linear probe (Plexon Inc, Uprobe) driven by a mechanical microdrive (Alpha Omega, FlexMT). Signals were passed through a head stage (Plexon Inc, HST/16V-G20 LN) and then split and filtered between 300 Hz and 5 kHz to identify spiking activity with an amplifier system (Plexon Inc, OmniPlex). Detected spikes were then sorted by commercially available software (Plexon Inc, Offline Sorter) for further analysis. To quantify the effect of CNO/DCZ injection, neural activity was recorded for 60 minutes following CNO/DCZ injection. The response time-course for each channel was obtained by counting the spikes within every 10-minute window and then normalizing to the maximal.
To determine the effect of CNO/DCZ injection on the direction of signal change, we performed Pearson correlation between neural responses and time using the ‘corr’ function in Matlab, which generates the correlation coefficient ‘r’ and significant level ‘p’. A neuron was considered to have “Increased” activity when r>0 and p<0.05; and considered to have “Decreased” activity when r<0 and p<0.05. Otherwise, neurons were considered to be “Unchanged” in their neural activities. The responses of all increased neurons were then averaged after being normalized by the maximal response (Crowe et al., 2014; Dai and Wang, 2018; Hirokawa et al., 2019) following CNO/DCZ injection, and then plotted as a function of time to generate the normalized population response.
To enable in-vivo verification of the strategy via an opto-tagging approach, AAV virus encoding opsin ChR2 (AAV9-EF1α-DIO-ChR2-EYFP) was injected into the striatum with simultaneous nigral infusion of a retrograde AAV encoding Cre and rM3Ds (AAV8R12-G88P7-HA-rM3Ds-2A-Cre). A total volume of 27 μl (3 μl×9 sites) and 30 μl (3 μl×10 sites) were injected in the SNr and the striatum, respectively. A recording chamber was implanted above the striatum to allow optical stimulation and electrophysiological recording.
Optogenetic verification was conducted six weeks after virus injections. A 16-channel linear probe with an embedded optic fiber (Plexon Inc., Uprobe) was used to deliver light stimulation and record neural responses. A mechanical Microdrive (FlexMT, Alpha Omega, Nazareth, Israel) was used to mount and drive the probe. A blue laser (473 nm, Changchun New Industries Tech, MBL-III-473) was used to generate light stimulation, which was controlled by a DAQ board (National Instruments, PCIe-6321) through the MonkeyLogic toolbox (NIMH version).
Light pulses of 40 Hz that last for 500 ms were used to probe neurons' responses to optical stimulation. […] Responses from these optically identified cells were grouped to generate the normalized population response as a function of time.

C[N+]1([O-])CCN(C2=Nc3cc(Cl)ccc3Nc3ccccc32)CC1 [CNO, clozapine N-oxide]
caudate/putamen cells activated (FIG. 12N) (38 total cells, saline 20%): 50%
caudate/putamen cells unchanged (FIG. 12N) (38 total cells, saline 26.7%): 36.8%
caudate/putamen cells inactivated (FIG. 12N) (38 total cells, saline 53.3%): 13.2%
neuronal activity of opto-tagged retrogradely labeled D1-MSNs (AAV8R12-G88P7-HA-rM3Ds-2A-Cre plus AAV9-EF1α-DIO-ChR2-EYFP, anesthetized macaques): effectively induced an increase of neuronal activity
caudate cells activated (FIG. 12F) (monkey CM048, 38 cells): 65.8%
caudate cells inactivated (FIG. 12F) (monkey CM048, 38 cells): 7.9%
caudate cells unchanged (FIG. 12F) (monkey CM048, 38 cells): 26.3%
